Results from patent US20170151295A1, “USE OF CHI-JU-DI-HUANG-WAN IN TREATING RETINAL ISCHEMIA OR A DISEASE, CONDITION, OR DISORDER ASSOCIATED WITH RETINAL ISCHEMIA” (priority 2015, published 2017).

Assays:
Assay type in all cases: in vivo, Wistar rats
[1] = system: P-p38 MAPK; experiment: Western blotting, retinal P-p38 MAPK after I/R; details: intravitreal 2 nmole 15 min before ischemia, I/R 24 h
Description: Intravitreal injections were performed using a 30-gauge needle attached to a 25 μl syringe after pupil dilation with 1% tropicamide and 2.5% phenylephrine. In certain instances, intravitreal injections of 4 μl of 2 nmole SB203580 (Calbiochem, San Diego, Calif.) or vehicle (an equal volume of DMSO) were performed on ischemic eyes fifteen minutes before pressure-induced retinal ischemia.
One day following retinal ischemia with preadministration of relevant compounds or following a sham procedure, the animals were sacrificed. Retinal samples were retrieved and sonicated in a lysis buffer, mammalian protein extraction reagent (Pierce, Ill.).

[2] = system: MMP-9; experiment: Western blotting, retinal MMP-9 after I/R; details: intravitreal 2 nmole 15 min before ischemia, I/R 24 h
[3] = system: MMP-9; experiment: Gel zymography, retinal MMP-9 activity after I/R; details: intravitreal 2 nmole 15 min before ischemia, 24 h after ischemia

C[S+]([O-])c1ccc(-c2nc(-c3ccncc3)c(-c3ccc(F)cc3)[nH]2)cc1 (stereo not drawn) [SB203580]
P-p38/β-actin protein ratio [1]: 0.23 ± 0.05
MMP-9/β-actin protein ratio (Western blotting) [2]: 0.31 ± 0.10
MMP-9/β-actin (gel zymography, MMP-9 activity) [3]: 1.49 ± 0.21
